Test results taken from PubChem BioAssay (NCI).
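A five-concentration, 48-hour dose response in 96-well plates underlies each endpoint, interpolated linearly between surrounding concentrations. The concentration for full growth arrest is given as TGI.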

Legend:
Test in all cases: growth of human tumour cells (NCI), 48 h
[1] = tested on: 786-0 renal
[2] = tested on: A549 NSCLC
[3] = tested on: ACHN renal
[4] = tested on: CAKI-1 renal
[5] = tested on: CCRF-CEM leukemia
[6] = tested on: COLO 205 colon
[7] = tested on: DLD-1 colon
[8] = tested on: DMS 114 small cell lung
[9] = tested on: DMS 273 small cell lung
[10] = tested on: EKVX NSCLC
[11] = tested on: HCC-2998 colon
[12] = tested on: HCT-116 colon
[13] = tested on: HCT-15 colon
[14] = tested on: HL-60(TB) leukemia
[15] = tested on: HOP-62 NSCLC
[16] = tested on: HOP-92 NSCLC
[17] = tested on: HT29 colon
[18] = tested on: IGROV1 ovarian
[19] = tested on: KM12 colon
[20] = tested on: KM20L2 colon
[21] = tested on: LOX IMVI melanoma
[22] = tested on: LXFL 529 NSCLC
[23] = tested on: M14 melanoma
[24] = tested on: M19-MEL melanoma
[25] = tested on: MALME-3M melanoma
[26] = tested on: NCI-H226 lung
[27] = tested on: NCI-H23 lung
[28] = tested on: NCI-H460 lung
[29] = tested on: NCI-H522 lung
[30] = tested on: OVCAR-3 ovarian
[31] = tested on: OVCAR-4 ovarian
[32] = tested on: OVCAR-5 ovarian
[33] = tested on: OVCAR-8 ovarian
[34] = tested on: RPMI-8226 leukemia
[35] = tested on: RXF 393 renal
[36] = tested on: RXF-631 renal
[37] = tested on: SF-268 CNS
[38] = tested on: SF-295 CNS
[39] = tested on: SF-539 CNS
[40] = tested on: SK-MEL-2 melanoma
[41] = tested on: SK-MEL-28 melanoma
[42] = tested on: SK-MEL-5 melanoma
[43] = tested on: SK-OV-3 ovarian
[44] = tested on: SN12C renal
[45] = tested on: SNB-19 CNS
[46] = tested on: SNB-75 CNS
[47] = tested on: SNB-78 CNS
[48] = tested on: SR leukemia
[49] = tested on: SW-620 colon
[50] = tested on: TK-10 renal
[51] = tested on: U251 CNS
[52] = tested on: UACC-257 melanoma
[53] = tested on: UACC-62 melanoma
[54] = tested on: UO-31 renal
[55] = tested on: XF 498 CNS
[56] = tested on: A498 renal
[57] = tested on: HOP-18 NSCLC
[58] = tested on: K-562 leukemia
[59] = tested on: MOLT-4 leukemia

O=C(Cc1ccc(F)cc1)NC1=C(Cl)C(=O)c2ccccc2C1=O
TGI [1]: 19.5 µM | TGI [2]: 16.4 µM | TGI [3]: 3.4 µM | TGI [4]: 19.8 µM | TGI [5]: > 100 µM | TGI [6]: 12.7 µM | TGI [7]: 4.24 µM | TGI [8]: 1.8 µM | TGI [9]: 13.6 µM | TGI [10]: 16 µM | TGI [11]: 16 µM | TGI [12]: 11.9 µM | TGI [13]: 7.43 µM | TGI [14]: 0.39 µM | TGI [15]: 44.6 µM | TGI [16]: 3.68 µM | TGI [17]: 35.4 µM | TGI [18]: 6.63 µM | TGI [19]: 14.4 µM | TGI [20]: 34.8 µM | TGI [21]: 9.05 µM | TGI [22]: 10.5 µM | TGI [23]: 12.4 µM | TGI [24]: 14.7 µM | TGI [25]: 7.89 µM | TGI [26]: 12.7 µM | TGI [27]: 5.94 µM | TGI [28]: 13.8 µM | TGI [29]: 1.25 µM | TGI [30]: 9.33 µM | TGI [31]: 9.28 µM | TGI [32]: 13.1 µM | TGI [33]: 4.05 µM | TGI [34]: 4.14 µM | TGI [35]: 4.11 µM | TGI [36]: > 50 µM | TGI [37]: 15.1 µM | TGI [38]: 12 µM | TGI [39]: 5.02 µM | TGI [40]: 6.33 µM | TGI [41]: 11.6 µM | TGI [42]: 11.3 µM | TGI [43]: 58.3 µM | TGI [44]: 13.8 µM | TGI [45]: > 100 µM | TGI [46]: 18.3 µM | TGI [47]: 34.7 µM | TGI [48]: 3.34 µM | TGI [49]: 5.76 µM | TGI [50]: 14.5 µM | TGI [51]: 11.5 µM | TGI [52]: 6.56 µM | TGI [53]: 9.87 µM | TGI [54]: 7.88 µM | TGI [55]: 4.02 µM

CCOC(OC1=C(C#N)CCC1)C(C)[Se]c1ccccc1 (configuration not stated)
TGI [1]: 27.8 µM | TGI [56]: > 100 µM | TGI [2]: > 100 µM | TGI [3]: 96.2 µM | TGI [4]: > 100 µM | TGI [5]: > 100 µM | TGI [6]: > 100 µM | TGI [7]: 87.6 µM | TGI [8]: 14.2 µM | TGI [9]: 29.7 µM | TGI [10]: 82.6 µM | TGI [11]: > 100 µM | TGI [12]: 42.4 µM | TGI [13]: 35.2 µM | TGI [14]: 73.8 µM | TGI [57]: 55.3 µM | TGI [15]: > 100 µM | TGI [16]: 49.3 µM | TGI [17]: > 100 µM | TGI [18]: 68.8 µM | TGI [58]: > 100 µM | TGI [19]: > 100 µM | TGI [20]: > 100 µM | TGI [21]: 22.9 µM | TGI [22]: 46 µM | TGI [23]: 33.4 µM | TGI [24]: 30.9 µM | TGI [25]: 51.9 µM | TGI [59]: 43.7 µM | TGI [26]: 51.7 µM | TGI [27]: 26.6 µM | TGI [28]: > 100 µM | TGI [29]: 26.7 µM | TGI [30]: 42.5 µM | TGI [31]: 30.5 µM | TGI [32]: > 100 µM | TGI [33]: 35.9 µM | TGI [34]: 53.1 µM | TGI [35]: 34.7 µM | TGI [36]: 26.3 µM | TGI [37]: 46.6 µM | TGI [38]: 71.6 µM | TGI [39]: 41 µM | TGI [40]: > 100 µM | TGI [41]: 96.9 µM | TGI [42]: 34 µM | TGI [43]: > 100 µM | TGI [44]: 35.8 µM | TGI [45]: > 100 µM | TGI [46]: 77.9 µM | TGI [47]: > 100 µM | TGI [48]: 34.8 µM | TGI [50]: > 100 µM | TGI [51]: 21.5 µM | TGI [52]: > 100 µM | TGI [53]: 43.9 µM | TGI [54]: 67.4 µM
